Drawing on patent US8901118B2, “Compounds and methods for kinase modulation, and indications therefor” (Plexxikon Inc., priority 2010, dated 2014), this text covers IC50 for ten compounds.

As usually defined, the IC50 is the concentration at which inhibition is half-maximal.

Molecules are shown by their SMILES.

In the first test the test system is Osteoclast precursor cells. The experiment in a line: Osteoclast differentiation assay (acid phosphatase readout). It counts as cell-based.
Conditions: not given
How it is done: Further, an osteoclast differentiation assay is used to assess the efficacy of Fms inhibitors for treating bone disease such as osteoarthritis. On day 0, Osteoclast Medium BulletKit (Lonza catalog #PT-8001, containing Media, FBS, L-Glutamine, PenStrep, RANKL, and M-CSF) media is thawed and the FBS, L-glutamine and PenStrep from the kit is added to 100 mL of Osteoclast Precursor Basal medium to provide the Osteoclast Precursor Growth Medium (OPGM). This is warmed to 37° C. Osteoclast precursor cells (Lonza catalog #2T-110) frozen in cryovial are warmed to 37° C. and transferred to a 50 mL conical tube. The cryovial is rinsed with OPGM and added dropwise to the conical tube of cells with swirling, then the volume is adjusted to 20-30 mL with addition of OPGM. The cells are centrifuged at 200×g for 15 minutes at room temperature and all but approximately 3 mL of supernatant is removed to a new conical tube. The cells are suspended in the remaining supernatant and the volume is adjusted to 10-15 mL with OPGM added dropwise with swirling. The cells are centrifuged at 200×g for 15 minutes at room temperature and all but approximately 1 mL of supernatant is removed. The cells are resuspended in the remaining supernatant, counted, and the volume adjusted with an appropriate amount of OPGM to provide approximately 1×10^5 cells/mL. A 0.1 mL aliquot of cells is added to each well of a 96-well plate. Compound to be tested is prepared in DMSO for plating at a high concentration of 2.5 mM, with 8 point 1:3 serial dilutions. A 1 μL aliquot of each compound dilution is added to a 96 well v-bottom polypropylene plate and 0.124 mL of OPGM is added to the compound. Then 50 μL at of the compound in OPGM is added to the osteoclast precursor cells in 96-well plate (providing highest test concentration of 5 μM). RANKL (2 μg) from the BulletKit is reconstituted in 1 mL of OPGM, then vortexed and centrifuged briefly. A 792 μL at aliquot of RANKL is added to 6 mL of OPGM and 50 μL at is added to low control wells. Then 76.6 μL M-CSF (10 μg/mL) from the BulletKit is added to the remaining 5.8 mL of OPGM/RANKL solution (4×RANKL/M-CSF/OPGM). A 50 μL at aliquot of this is added to the remaining wells, and the remainder is stored at 4° C. for later use. The plate is incubated at 37° C. for 6 days, then the remaining OPGM/RANKL/M-CSF solution is warmed to 37° C. The remaining approximately 198 μL is combined with 6 mL of OPGM. The media is aspirated from the osteoclast wells and 100 μL of RANKL/OPGM is added to the low controls. The remaining RANKL/OPGM is combined with the approximately 18.5 μL of remaining M-CSF. The remaining 4×RANKL/M-CSF/OPGM from day 0 is diluted to 1× and combined with the freshly prepared solution. A 0.1 mL aliquot of this is added to each osteoclast well and incubated for 37° C. for 1 day. The Acid Phosphatase kit (Cayman Chemical catalog #10008051) is warmed to room temperature. The assay buffer is diluted 5 mL with 45 mL of water. For each plate, two substrate tablets are dissolved in 4.5 mL of the assay buffer, mixing by vortex to break up the tablet. Stop solution is diluted 12 mL with 36 mL of water. In a tissue culture hood, 20 μL of each osteoclast well supernatant is transferred to a 96 well plate. A 30 μL aliquot of the substrate solution is added to each well and incubated at 37° C. for 20 minutes, then added 100 μL stop solution to each well. The absorbance of each well is read at 405 nm on Safire plate reader. The absorbance reading is plotted vs. concentration to provide the IC50 for each compound.
The compound `Cc1cnc2[nH]cc(Cc3ccc(NC4CCCCC4)nc3F)c2c1` [Compound P-3008, cyclohexyl-[6-fluoro-5-(5-methyl-1H-pyrrolo[2,3-b]pyridin-3-ylmethyl)-pyridin-2-yl]-amine] came in with a half-maximal inhibitory concentration (IC50) of less than 0.1 µM.

A further test deals with T1, CYP1A2 (Homo sapiens, UniProt P05177).
T1 sequence (P05177 1-516): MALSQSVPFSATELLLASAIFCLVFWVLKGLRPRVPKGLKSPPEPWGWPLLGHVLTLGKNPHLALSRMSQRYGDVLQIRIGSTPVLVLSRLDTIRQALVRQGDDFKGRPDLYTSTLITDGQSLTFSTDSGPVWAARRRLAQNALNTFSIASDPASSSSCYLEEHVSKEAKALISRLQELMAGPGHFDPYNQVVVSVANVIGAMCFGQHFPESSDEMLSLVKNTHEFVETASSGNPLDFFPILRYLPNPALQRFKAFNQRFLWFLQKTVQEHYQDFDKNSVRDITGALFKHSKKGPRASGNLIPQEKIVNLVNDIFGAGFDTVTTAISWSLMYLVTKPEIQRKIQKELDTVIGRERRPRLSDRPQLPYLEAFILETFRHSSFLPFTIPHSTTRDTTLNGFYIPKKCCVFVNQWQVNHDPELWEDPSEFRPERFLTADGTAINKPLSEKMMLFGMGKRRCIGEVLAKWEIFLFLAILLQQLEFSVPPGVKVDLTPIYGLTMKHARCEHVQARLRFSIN
The experiment in a line: CYP1A2 inhibition (fluorescent substrate CEC). It counts as in vitro ADME. The settings on record: read-out: Cyp IC50 1A2. The method, boiled down: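 Compounds, serially diluted 1:1 over 10 points in NADPH-regenerating cofactor mix with 5% acetonitrile, were preincubated 10 min at 37 °C, then run with enzyme and substrate at 37 °C (CYP1A2 15 min; CYP2C9 45 min; CYP2C19, CYP2D6 30 min). Product fluorescence gave IC50s.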
For the compound `Cc1cnc2[nH]cc(Cc3ccc(NC4CCCCC4)nc3F)c2c1` [Compound P-3008, cyclohexyl-[6-fluoro-5-(5-methyl-1H-pyrrolo[2,3-b]pyridin-3-ylmethyl)-pyridin-2-yl]-amine], the 50% inhibitory concentration (IC50) is more than 10 µM.

Take `Fc1nc(Nc2ccc(C3CC3)nc2)ccc1Cc1c[nH]c2ncnc(C3CC3)c12` [Compound P-4041, (6-Cyclopropyl-pyridin-3-yl)-[5-(4-cyclopropyl-7H-pyrrolo[2,3-d]pyrimidin-5-ylmethyl)-6-fluoro-pyridin-2-yl]-amine]: the IC50 was 5 to 10 µM.

As for `CC(C)=CNc1ncnc2[nH]cc(C(=O)c3ccc(NC4CCC(F)(F)CC4)nc3Cl)c12` [Compound P-4047, [2-chloro-6-[(4,4-difluorocyclohexyl)amino]-3-pyridyl]-[4-(2-methylprop-1-enylamino)-7H-pyrrolo[2,3-d]pyrimidin-5-yl]methanone], the IC50 was more than 10 µM.

For the compound `Nc1ncnc2[nH]cc(C(=O)c3ccc(Nc4ccc(C5CC5)nc4)nc3F)c12` [Compound P-4048, (4-amino-7H-pyrrolo[2,3-d]pyrimidin-5-yl)-[6-[(6-cyclopropyl-3-pyridyl)amino]-2-fluoro-3-pyridyl]methanone], the half-inhibitory concentration (IC50) is more than 10 µM.

For `CC(C)(O)CNc1ncnc2[nH]cc(C(=O)c3ccc(Nc4ccc(C5CC5)nc4)nc3F)c12` [Compound P-4049, [6-[(6-cyclopropyl-3-pyridyl)amino]-2-fluoro-3-pyridyl]-[4-[(2-hydroxy-2-methyl-propyl)amino]-7H-pyrrolo[2,3-d]pyrimidin-5-yl]methanone], the IC50 is more than 10 µM.

As to `CCNc1ncnc2[nH]cc(C(=O)c3ccc(NC4CCC(F)(F)CC4)nc3Cl)c12` [Compound P-4050, [2-chloro-6-[(4,4-difluorocyclohexyl)amino]-3-pyridyl]-[4-(ethylamino)-7H-pyrrolo[2,3-d]pyrimidin-5-yl]methanone], the half-inhibitory concentration (IC50) is more than 10 µM.

`CCNc1ncnc2[nH]cc(C(=O)c3cnc(NC4CCC(F)(F)CC4)c(F)c3)c12` [Compound P-4051, [6-[(4,4-difluorocyclohexyl)amino]-5-fluoro-3-pyridyl]-[4-(ethylamino)-7H-pyrrolo[2,3-d]pyrimidin-5-yl]methanone]: the IC50 was more than 10 µM.

With `O=C(c1cnc(NC2CCC(F)(F)CC2)c(F)c1)c1c[nH]c2ncnc(NCC(F)(F)F)c12` [Compound P-4052, [6-[(4,4-difluorocyclohexyl)amino]-5-fluoro-3-pyridyl]-[4-(2,2,2-trifluoroethylamino)-7H-pyrrolo[2,3-d]pyrimidin-5-yl]methanone], the IC50 was more than 10 µM.

In the case of `O=C(c1cnc(NC2CCC(F)(F)CC2)c(F)c1)c1c[nH]c2ncnc(NC3CC3)c12` [Compound P-4053, [4-(cyclopropylamino)-7H-pyrrolo[2,3-d]pyrimidin-5-yl]-[6-[(4,4-difluorocyclohexyl)amino]-5-fluoro-3-pyridyl]methanone], the concentration for half-maximal inhibition (IC50) is more than 10 µM.

For the compound `CNc1ncnc2[nH]cc(C(=O)c3cnc(NC4CCC(F)(F)CC4)c(F)c3)c12` [Compound P-4054, [6-[(4,4-difluorocyclohexyl)amino]-5-fluoro-3-pyridyl]-[4-(methylamino)-7H-pyrrolo[2,3-d]pyrimidin-5-yl]methanone], the half-inhibitory concentration (IC50) is more than 10 µM.
